Values joined by “and” are separate entries in the source; they are usually repeats but may differ in a detail not shown here. Identical values can stand only once. Toxic doses and inconclusive results are not listed. Rule as the data show it: active = T/C of 150% or more; inactive = T/C below 125%.
System: L1210 leukemia ip in BDF1 mice, survival T/C
Experiment: NCI In Vivo Anticancer Drug Screen. Data for tumor model L1210 Leukemia (intraperitoneal) in B6D2F1 (BDF1) mice
Conditions: endpoint: mean survival time, higher = longer survival
Method in brief: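 Transplantable tumor model; survival measured in treated vs vehicle control mice. Value = treated/control.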

[1] = dose: 100.0 mg/kg/injection, schedule: Q01DX001 (ip), vehicle: saline
[2] = dose: 200.0 mg/kg/injection, schedule: Q01DX001 (ip), vehicle: saline
[3] = dose: 400.0 mg/kg/injection, schedule: Q01DX001 (ip), vehicle: saline
[4] = dose: 100.0 mg/kg/injection, schedule: Q01DX001 (ip), vehicle: Klucel (hydroxypropylcellulose) (HPC)
[5] = dose: 200.0 mg/kg/injection, schedule: Q01DX001 (ip), vehicle: Klucel (hydroxypropylcellulose) (HPC)
[6] = dose: 400.0 mg/kg/injection, schedule: Q01DX001 (ip), vehicle: Klucel (hydroxypropylcellulose) (HPC)

Measured: T/C

CC/C(=C(\CC)c1ccc(OCCOS(C)(=O)=O)cc1)c1ccc(OCCOS(C)(=O)=O)cc1
inactive: dose: 12.5 mg/kg/injection, schedule: Q04DX002 (ip), vehicle: saline 97 % of control | dose: 25.0 mg/kg/injection, schedule: Q04DX002 (ip), vehicle: saline 101 % of control | dose: 50.0 mg/kg/injection, schedule: Q04DX002 (ip), vehicle: saline 94 % of control

O=C1CN=C(c2ccccc2Cl)c2cc([N+](=O)[O-])ccc2N1
inactive: dose: 100.0 mg/kg/injection, schedule: Q04DX002 (ip), vehicle: Klucel (hydroxypropylcellulose) (HPC) 93 % of control | dose: 200.0 mg/kg/injection, schedule: Q04DX002 (ip), vehicle: Klucel (hydroxypropylcellulose) (HPC) 108 % of control | dose: 400.0 mg/kg/injection, schedule: Q04DX002 (ip), vehicle: Klucel (hydroxypropylcellulose) (HPC) 86 % of control

NC(CC(=O)NCCc1ccccc1)C(=O)NCCc1ccccc1 (stereo unspecified)
inactive: dose: 75.0 mg/kg/injection, schedule: Q01DX001 (ip), vehicle: other 102 % of control | dose: 150.0 mg/kg/injection, schedule: Q01DX001 (ip), vehicle: other 97 % of control | dose: 300.0 mg/kg/injection, schedule: Q01DX001 (ip), vehicle: other 97 % of control

CCOc1ccc(-n2c(=O)c(N=Nc3ccc(Cl)cc3)c(O)n(-c3ccccc3OC)c2=S)cc1
inactive: dose: 37.5 mg/kg/injection, schedule: Q01DX001 (ip), vehicle: Klucel (hydroxypropylcellulose) (HPC) 92 % of control | dose: 75.0 mg/kg/injection, schedule: Q01DX001 (ip), vehicle: Klucel (hydroxypropylcellulose) (HPC) 113 % of control | dose: 150.0 mg/kg/injection, schedule: Q01DX001 (ip), vehicle: Klucel (hydroxypropylcellulose) (HPC) 103 % of control

O=C1OC(n2ccc3ccccc32)c2ccccc21 (stereo unspecified)
inactive: [1] 105 % of control | dose: 100.0 mg/kg/injection, schedule: Q04DX003 (ip), vehicle: saline 89 % of control | [2] 96 % of control | dose: 200.0 mg/kg/injection, schedule: Q04DX003 (ip), vehicle: saline 92 % of control | [3] 102 % of control | dose: 400.0 mg/kg/injection, schedule: Q04DX003 (ip), vehicle: saline 89 % of control

Cc1[nH]c(=S)[nH]c(=O)c1CCSC(=N)N
inactive: [1] 108 % of control | [2] 103 % of control

BrCC1(c2ccccc2)OCCO1
inactive: [4] 100 % of control | dose: 100.0 mg/kg/injection, schedule: Q01DX009 (ip), vehicle: Klucel (hydroxypropylcellulose) (HPC) 89 % of control | [5] 92 % of control | dose: 200.0 mg/kg/injection, schedule: Q01DX009 (ip), vehicle: Klucel (hydroxypropylcellulose) (HPC) 89 % of control | [6] 98 % of control

CCCCCCCCCCC1CCCC1
inactive: dose: 100.0 mg/kg/injection, schedule: Q04DX002 (ip), vehicle: saline with Tween-80 94 % of control | dose: 200.0 mg/kg/injection, schedule: Q04DX002 (ip), vehicle: saline with Tween-80 98 % of control | dose: 400.0 mg/kg/injection, schedule: Q04DX002 (ip), vehicle: saline with Tween-80 94 % of control

COc1ccc(C2NC(=O)N3C(c4ccc(OC)cc4)NC(=O)N23)cc1 (stereo unspecified)
inactive: dose: 100.0 mg/kg/injection, schedule: Q01DX009 (ip), vehicle: gum acacia 105 % of control | dose: 100.0 mg/kg/injection, schedule: Q04DX003 (ip), vehicle: gum acacia 97 % of control | dose: 200.0 mg/kg/injection, schedule: Q01DX009 (ip), vehicle: gum acacia 89 % of control | dose: 400.0 mg/kg/injection, schedule: Q01DX009 (ip), vehicle: gum acacia 93 % of control | dose: 400.0 mg/kg/injection, schedule: Q04DX003 (ip), vehicle: gum acacia 94 % of control

Nc1ccc(Cl)cc1C(=O)c1ccccc1
inactive: dose: 25.0 mg/kg/injection, schedule: Q04DX002 (ip), vehicle: DMSO 95 % of control | dose: 50.0 mg/kg/injection, schedule: Q04DX002 (ip), vehicle: DMSO 89 % of control | dose: 100.0 mg/kg/injection, schedule: Q04DX002 (ip), vehicle: DMSO 106 % of control and 88 % of control

COc1cccc(NC(=S)NN)c1
inactive: dose: 12.5 mg/kg/injection, schedule: Q04DX002 (ip), vehicle: Klucel (hydroxypropylcellulose) (HPC) 92 % of control | dose: 25.0 mg/kg/injection, schedule: Q04DX002 (ip), vehicle: Klucel (hydroxypropylcellulose) (HPC) 117 % of control

CC(=O)Nc1ccc(/C=N/NC(=O)c2ccc(C)cc2)cc1
inactive: dose: 50.0 mg/kg/injection, schedule: Q01DX009 (ip), vehicle: saline with Tween-80 93 % of control | dose: 200.0 mg/kg/injection, schedule: Q01DX009 (ip), vehicle: saline with Tween-80 90 % of control

COC(OC)c1[nH]c(=S)[nH]c(=O)c1Cc1c(Cl)cccc1Cl
inactive: dose: 100.0 mg/kg/injection, schedule: Q04DX003 (ip), vehicle: saline with Tween-80 101 % of control | dose: 200.0 mg/kg/injection, schedule: Q04DX003 (ip), vehicle: saline with Tween-80 103 % of control | dose: 400.0 mg/kg/injection, schedule: Q04DX003 (ip), vehicle: saline with Tween-80 94 % of control

CN(C)c1c(-c2ccccc2)cc(-c2ccccc2)[nH]c1=O
inactive: dose: 100.0 mg/kg/injection, schedule: Q01DX001 (ip), vehicle: carboxymethylcellulose (CMC) 95 % of control | dose: 200.0 mg/kg/injection, schedule: Q01DX001 (ip), vehicle: carboxymethylcellulose (CMC) 95 % of control | dose: 400.0 mg/kg/injection, schedule: Q01DX001 (ip), vehicle: carboxymethylcellulose (CMC) 88 % of control

C1CN1P1(N2CC2)=NP(N2CC2)(N2CC2)=NP(N2CC2)(N2CC2)=NP(N2CC2)(N2CC2)=N1
inactive: dose: 4.4 mg/kg/injection, schedule: Q04DX003 (ip), vehicle: saline 114 % of control | dose: 6.6 mg/kg/injection, schedule: Q04DX003 (ip), vehicle: saline 116 % of control | dose: 10.0 mg/kg/injection, schedule: Q01DX001 (ip), vehicle: saline 118 % of control | dose: 10.0 mg/kg/injection, schedule: Q04DX003 (ip), vehicle: saline 119 % of control | dose: 20.0 mg/kg/injection, schedule: Q04DX003 (ip), vehicle: saline 117 % of control | dose: 40.0 mg/kg/injection, schedule: Q01DX001 (ip), vehicle: saline 124 % of control | dose: 40.0 mg/kg/injection, schedule: Q04DX003 (ip), vehicle: saline 109 % of control

C[C@]12C[C@H](O)[C@H]3[C@@H](CCC4=CC(=O)CC[C@@]43C)[C@@H]1CC[C@@H]2C(=O)CO
inactive: dose: 25.0 mg/kg/injection, schedule: Q01DX009 (sc), vehicle: steriod suspending solution 101 % of control | dose: 25.0 mg/kg/injection, schedule: Q01DX010 (sc), vehicle: steriod suspending solution 102 % of control | dose: 50.0 mg/kg/injection, schedule: Q01DX009 (sc), vehicle: steriod suspending solution 95 % of control and 103 % of control | dose: 50.0 mg/kg/injection, schedule: Q01DX010 (sc), vehicle: steriod suspending solution 104 % of control | dose: 100.0 mg/kg/injection, schedule: Q01DX009 (sc), vehicle: steriod suspending solution 94 % of control and 107 % of control | dose: 100.0 mg/kg/injection, schedule: Q01DX010 (sc), vehicle: steriod suspending solution 102 % of control | dose: 200.0 mg/kg/injection, schedule: Q01DX009 (sc), vehicle: steriod suspending solution 105 % of control and 113 % of control | dose: 200.0 mg/kg/injection, schedule: Q01DX010 (sc), vehicle: steriod suspending solution 102 % of control

Cc1ccccc1-n1c(O)c(N=Nc2ccc(Br)cc2)c(=O)n(-c2ccccc2)c1=S
inactive: [4] 94 % of control | [5] 94 % of control | [6] 91 % of control

CCOC(CCc1c(C)nc[nH]c1=O)OCC
inactive: dose: 100.0 mg/kg/injection, schedule: Q01DX009 (ip), vehicle: saline 90 % of control | dose: 200.0 mg/kg/injection, schedule: Q01DX009 (ip), vehicle: saline 98 % of control | dose: 400.0 mg/kg/injection, schedule: Q01DX009 (ip), vehicle: saline 95 % of control

Cc1ccc(CC(=O)c2c[nH]c3ccccc23)c(Cl)c1C
inactive: dose: 50.0 mg/kg/injection, schedule: Q01DX001 (ip), vehicle: saline 96 % of control | [1] 98 % of control | [2] 93 % of control | [3] 98 % of control

Reference: PubChem BioAssay AID248 (DTP/NCI, 2004)
